From US7303887B2, “Mule: Mcl-1 ubiquitination ligase E3” (Board of Regents, The University of Texas System, priority 2005, dated 2007)
Ends that are not written are not given here. Peptide text beside a SMILES is read from it. * marks the point of attachment. Cbz = O=C(OCc1ccccc1)*

How the values were obtained:
[1] = tested on: proteasome; assay: Western blotting for Mcl-1 in Hela cells treated with proteasome inhibitor; assay type: cell-based, human; conditions: anti-Mcl-1 western blotting
Excerpt: Proteins targeted for proteasome degradation are usually modified by a poly-ubiquitin chain (Hershko and Ciechanover, 1998). To test whether Mcl-1 is ubiquitinated, we treated Hela cells with a proteasome inhibitor MG132 to block the proteasome activity and performed western blotting analysis for Mcl-1 to test for the accumulation of higher molecular weight forms that could be ubiquitin modified. […] To verify these higher molecular weight bands were indeed caused by polyubiquitin conjugation of Mcl-1, the protein was immunoprecipitated by an anti-Mcl-1 antibody and the immuno-precipitate was probed by an anti-ubiquitin antibody.

[2] = tested on: Mcl-1 and Mule; assay: Co-immunoprecipitation of Mule with Flag-Mcl-1 from Flag-Mcl-1 expressing cells; assay type: cell-based; conditions: anti-Flag immunoprecipitation
Excerpt: We next tested whether Mule interacts with Mcl-1 in vivo. Cell extracts from Flag-Mcl-1 expressing cells were immunoprecipitated with an anti-Flag monoclonal antibody. The immunoprecipitates were then subjected to SDS-PAGE and immunoblotted with antibodies against Flag or Mule. The antibody against Flag precipitated Flag-Mcl-1 in Flag-Mcl-1 expressing cells but not in the control cells. The Flag antibody also precipitated Mule, and the amount of co-precipitated Mcl-1 and Mule increased upon treatment with the proteasome inhibitor MG132.

[3] = tested on: U2OS cells; assay: Colony growth 8 days after 6 hours of cisplatin treatment; assay type: cell-based, human; conditions: 6 hours treatment, 8 days culture
Experimental: To test whether the delayed apoptosis when Mule was knocked down has a long last effect, cells were switched to fresh medium after 6 hours of cisplatin treatment and continued culture for 8 days.

[4] = tested on: U2OS cells; assay: Cell death induced by DNA damaging agents with Mule knocked down; assay type: cell-based, human; conditions: for cell death induced by the agent: Mule knocked down versus not
Experimental: The Mule shRNA construct was co-transfected with tetracycline repressor expression construct into 5×10^5 attached U2OS cells grown in DMEM with 10% FBS using Lipofectamine transfection reagent (Invitrogen) according to the manufacturer's protocol. One day later, the cells were selected against 1 μg/ml blasticidine and 2 μg/ml puromycin. After two weeks, individual clones were lifted and tested for expression of tetracycline repressor. Positive clones were further tested for Mule shRNA expression. Clones were treated with 2 μg/ml tetracycline for 3 days. Cell extracts were collected and subjected to 6% SDS-PAGE and western blotting with anti-Mule monoclonal antibody. Clones with the best inducible knock down of Mule were chosen for further experiments. […] We then treated cells with their Mule level knocked down with several DNA damaging agents including UV-irradiation and two commonly used chemotherapeutic drugs etoposide and cisplatin. […] We therefore performed a detailed biochemical analysis in cells treated with this drug with or without Mule knocked down.

[5] = tested on: caspase-3; assay: Caspase-3 activation (cleavage) and PARP cleavage after cisplatin treatment; assay type: cell-based, human
Excerpt: We then treated cells with their Mule level knocked down with several DNA damaging agents including UV-irradiation and two commonly used chemotherapeutic drugs etoposide and cisplatin. […] We therefore performed a detailed biochemical analysis in cells treated with this drug with or without Mule knocked down.

[6] = biological target: T1, Mcl-1 (Homo sapiens, UniProt Q07820); assay: Biotin-labeled BH3 peptide pull down from HeLa S100; assay type: binding; design: endogenous in cells; host or cells: HeLa S100
Excerpt: (§1) To examine whether BH3 domain of Mule is sufficient for interaction with Mcl-1, we used a biotin-labeled version of the 26 amino acids Mule BH3 peptide (aa 1969-1994) and the 4E mutant to pull down proteins from cell extracts.

[7] = biological target: T2, Mule (Homo sapiens); assay: In vitro Mcl-1 ubiquitination assay, reconstituted system, competition by BH3 peptides; assay type: biochemical; conditions: peptide at 4 μM
T2 construct: The cDNA of full-length human Mule was subcloned into Sal I and Not I sites of pFastBac-1; made in house; host or cells: Sf21 insect cells, baculovirus (pFastBac-1)
Experimental: (§2) In vitro Ubiguitination assay: In 15 ul reaction, 200 ng of recombinant Flag-Mcl-1 is incubated with an ATP regenerating system (50 mM Tris pH 7.6, 5 mM MgCl2, 2 mM ATP, 10 mM creatine phosphate, 3.5 U/ml of creatine kinase), 10 μg of Methyl-Ubiquitin, 10 ng human E1, 100 ng Ubch7, 2 μM of ubiquitin aldehyde, and 10 μg of S100 or designated fractions, at 37° C. for one hour. After terminating the reactions with SDS sample buffer, reaction products were fractionated by SDS-PAGE (10%) and analyzed by western blotting with anti-Flag M2 antibody during purification and anti-Mcl-1 when purified components were used.
We used methylated ubiquitin for further biochemical analysis because it gave clearer signal. Mule ubiquitinated Mcl-1 in a dose-dependent manner, and the ubiquitination activity relied on the presence of E1 and E2.
The members of Bcl-2 family of proteins containing only the BH3 domain use this domain to interact with other family members. If Mule also uses its BH3 domain to interact with Mcl-1, a peptide containing this domain should compete for Mule-Mcl-1 interaction therefore blocking Mcl-1 ubiquitination in the reconstituted system. To test this hypothesis, we synthesized a 26 amino acid Mule BH3-containing peptide and a mutant peptide in which four hydrophobic residues required for protein-protein interaction were switched with […] (4E).

[8] = biological target: T3, Bax (Homo sapiens, UniProt Q07812); assay: Biotin-labeled BH3 peptide pull down from HeLa S100; assay type: binding
T3 construct: endogenous in cells; host or cells: HeLa S100
Excerpt: as §1

[9] = biological target: T4, Bcl-2 (Homo sapiens, UniProt P10415); assay: as above; assay type: binding
T4 construct: endogenous in cells; host or cells: HeLa S100
Excerpt: as §1

[10] = biological target: T5, Bcl-xL (Homo sapiens, UniProt Q07817); assay: as above; assay type: binding
T5 construct: endogenous in cells; host or cells: HeLa S100
Excerpt: as §1

[11] = biological target: T1, Mcl-1; assay: In vitro Mcl-1 ubiquitination by purified recombinant Mule; assay type: biochemical; conditions: in the presence of E1, Ubch7 (E2), ATP regenerating system; ubiquitin, methylated or GST-tagged ubiquitin
Experimental: as §2
The cDNA of full-length human Mule was subcloned into Sal I and Not I sites of pFastBac-1 (Invitrogen). Mule expression baculovirus were prepared according to manufacture's manual (Bac-to-Bac Baculovirus expression system, Invitrogen, Carlsbad, Calif.). Insect cells Sf21 were infected with the P3 virus. The cells were harvested after 2 days of infection. Cell pellet was re-suspended in buffer A and homogenized with a glass douncer (pellet of 1 L culture of infected Sf21 cells was resuspended in 50 ml of buffer A). The homogenate was centrifuged at 100,000 g (SW28 rotor, 25,000 rpm) for 1 hr. The S100 (2 g total protein) were filtered and loaded onto Q column (hand-packed 36 ml of Q Sepharose XL beads). […]

T1 sequence (Q07820 whole entry, the tested form may be a part): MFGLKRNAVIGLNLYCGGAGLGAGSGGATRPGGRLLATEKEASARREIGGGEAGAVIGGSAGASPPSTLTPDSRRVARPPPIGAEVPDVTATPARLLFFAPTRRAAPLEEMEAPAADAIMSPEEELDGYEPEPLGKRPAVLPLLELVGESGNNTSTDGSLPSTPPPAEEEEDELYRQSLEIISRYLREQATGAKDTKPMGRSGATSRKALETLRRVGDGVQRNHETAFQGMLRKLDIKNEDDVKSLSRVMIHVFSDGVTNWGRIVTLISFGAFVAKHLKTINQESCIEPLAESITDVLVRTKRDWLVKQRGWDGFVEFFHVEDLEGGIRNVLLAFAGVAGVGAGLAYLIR
T4 sequence (P10415 whole entry): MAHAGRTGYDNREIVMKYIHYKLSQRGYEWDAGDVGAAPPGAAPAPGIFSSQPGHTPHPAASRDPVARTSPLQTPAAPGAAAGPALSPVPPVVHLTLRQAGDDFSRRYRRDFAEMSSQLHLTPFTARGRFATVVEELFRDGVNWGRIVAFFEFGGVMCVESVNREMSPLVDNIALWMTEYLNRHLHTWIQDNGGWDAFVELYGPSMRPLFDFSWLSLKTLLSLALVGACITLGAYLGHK
T5 sequence (Q07817 whole entry): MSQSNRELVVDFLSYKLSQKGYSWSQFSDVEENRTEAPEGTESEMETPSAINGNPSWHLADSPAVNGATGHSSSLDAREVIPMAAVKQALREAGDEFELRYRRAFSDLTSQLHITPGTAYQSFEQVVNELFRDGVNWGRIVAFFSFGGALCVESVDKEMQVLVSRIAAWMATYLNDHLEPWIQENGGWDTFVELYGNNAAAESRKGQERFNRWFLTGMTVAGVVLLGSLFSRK
T2 sequence (Q07820 whole entry): as the sequence (Q07820 whole entry, the tested form may be a part) above
T3 sequence (Q07812 whole entry): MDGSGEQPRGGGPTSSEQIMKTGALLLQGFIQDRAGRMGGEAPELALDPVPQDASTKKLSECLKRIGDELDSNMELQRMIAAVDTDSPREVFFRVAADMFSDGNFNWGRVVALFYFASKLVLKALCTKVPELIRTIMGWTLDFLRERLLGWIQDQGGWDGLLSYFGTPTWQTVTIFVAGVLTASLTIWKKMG

## CC(C)C[C@@H](C=O)NC(=O)[C@H](CC(C)C)NC(=O)[C@H](CC(C)C)NC(=O)OCc1ccccc1 [MG132] (Cbz-Leu-Leu-Leu-aldehyde)
[1]
  accumulation of higher molecular weight (polyubiquitinated) forms of Mcl-1: Higher molecular weight protein bands were detected
[2]
  amount of co-precipitated Mcl-1 and Mule: increased

## N.N.[Cl][Pt][Cl] [cisplatin]
[3]; Mule knocked down
  colonies relative to cells containing Mule: more than nine fold more colonies
[3]; cells containing Mule
  colonies grown up: few if any colonies
[4]; Mule knocked down
  ability to induce apoptosis among the DNA damaging agents: least ability to induce apoptosis
[4]
  cell death induced by the agent: reduced when Mule was knocked down
[5]; Mule knocked down
  start of (weak) caspase-3 activation after treatment: 8 h
[5]; Mule knocked down, 6 hours after treatment
  caspase-3 activation: did not see any caspase-3 activation
[5]; cells with Mule present
  start of caspase-3 activation after treatment: 4 h
[5]; with or without Mule knocked down
  cleavage of PARP: showed the same pattern

## COc1cc([C@@H]2c3cc4c(cc3[C@@H](O[C@@H]3O[C@@H]5CO[C@@H](C)O[C@H]5[C@H](O)[C@H]3O)[C@H]3COC(=O)[C@H]23)OCO4)cc(OC)c1O [etoposide]
[4]
  cell death induced by the agent: reduced when Mule was knocked down

## Mule BH3 peptide: synthesized 26 amino acid Mule BH3-containing peptide (aa 1969-1994); biotin-labeled version used for pull down (PGVMTQEVGQLLQDMGDDVYQQYRSL; also: biotin-labeled (position not given here); UniProt Q7Z6Z7 1969-1994, looked up, fragment)
[6]
  pull down of Mcl-1: specifically pulled down Mcl-1
[7]
  block of Mcl-1 ubiquitination: efficiently block Mcl-1 ubiquitination
[8]
  pull down of Bax: not Bcl-xL, Bcl-2, and Bax
[9]
  pull down of Bcl-2: not Bcl-xL, Bcl-2, and Bax
[10]
  pull down of Bcl-xL: not Bcl-xL, Bcl-2, and Bax

## recombinant Mule: purified recombinant full-length human Mule protein, baculovirus-based expression system; Mcl-1 ubiquitin ligase E3
[11]
  stimulation of Mcl-1 ubiquitination: able to stimulate Mcl-1 ubiquitination
